Measured values reported in PubChem BioAssay AID328 (DTP/NCI, 2004).
Inconclusive results and toxic doses are left out. How the source made its calls: active means survival T/C of 150% or more; inactive means T/C below 125% in these data. Starred links: 1 amine or outer side, 2 acyl side, 3 side chain; linkers in the order of their positions; H or OH if unused. Positions of bridges follow the written chain, without caps; N, C: chain ends. Non-standard residues stand in square brackets, D forms with d. Residues, ends and D or L forms follow the SMILES beside them. ξ: configuration not given here. *: point of attachment. ξOrn(4,5-diOH) = O=C(C(CC(O)C(O)N[*:3])N[*:1])[*:2]; ξhTyr(βξ-OH,γξ-OH) = NC(C(=O)O)C(O)C(O)c1ccc(O)cc1; ξPro(3ξ-OH,4ξ-Me) = CC1CNC(C(=O)O)C1O; X4 = CCCCC/C=C/C/C=C\CCCCCCCC(=O)*; Hyp = O=C(O)[CH]1C[CH](O)CN1

System: BDF1 mice, P388 leukemia ip, median survival T/C
Assay: NCI In Vivo Anticancer Drug Screen. Data for tumor model P388 Leukemia (intraperitoneal) in B6D2F1 (BDF1) mice
Settings: endpoint: median survival time, higher = longer survival
Summary of the method: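 Steps: implant the tumour, treat one group with compound and another with vehicle, record survival, then divide treated by control.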

[1] = dose: 100.0 mg/kg/injection, schedule: Q04DX003 (ip), vehicle: saline with Tween-80
[2] = dose: 200.0 mg/kg/injection, schedule: Q01DX009 (ip), vehicle: saline with Tween-80
[3] = dose: 200.0 mg/kg/injection, schedule: Q04DX003 (ip), vehicle: saline with Tween-80
[4] = dose: 400.0 mg/kg/injection, schedule: Q01DX009 (ip), vehicle: saline with Tween-80
[5] = dose: 400.0 mg/kg/injection, schedule: Q04DX003 (ip), vehicle: saline with Tween-80
[6] = dose: 50.0 mg/kg/injection, schedule: Q01DX009 (ip), vehicle: saline with Tween-80
[7] = dose: 100.0 mg/kg/injection, schedule: Q01DX009 (ip), vehicle: saline with Tween-80
[8] = dose: 50.0 mg/kg/injection, schedule: Q04DX003 (ip), vehicle: saline with Tween-80
[9] = dose: 25.0 mg/kg/injection, schedule: Q01DX009 (ip), vehicle: saline
[10] = dose: 50.0 mg/kg/injection, schedule: Q01DX009 (ip), vehicle: saline
[11] = dose: 50.0 mg/kg/injection, schedule: Q04DX003 (ip), vehicle: saline
[12] = dose: 100.0 mg/kg/injection, schedule: Q04DX003 (ip), vehicle: saline
[13] = dose: 25.0 mg/kg/injection, schedule: Q04DX003 (ip), vehicle: saline
[14] = dose: 100.0 mg/kg/injection, schedule: Q01DX001 (ip), vehicle: saline with Tween-80

Measured: T/C

Cc1ccccc1NC=O
inactive: dose: 90.0 mg/kg/injection, schedule: Q01DX009 (ip), vehicle: saline with Tween-80 103 % of control | [1] 95 % of control | dose: 135.0 mg/kg/injection, schedule: Q01DX009 (ip), vehicle: saline with Tween-80 107 % of control | [2] 99 % of control | [3] 104 % of control | dose: 300.0 mg/kg/injection, schedule: Q01DX009 (ip), vehicle: saline with Tween-80 107 % of control | [4] 120 % of control | [5] 116 % of control

NC(c1ccccc1)S(=O)(=O)O (centres undefined)
inactive: [6] 115 % of control | [7] 121 % of control | [2] 93 % of control | [4] 95 % of control

CN1C(=O)NC(C)(c2cccs2)C1=O (centres undefined)
inactive: [8] 96 % of control | [1] 101 % of control | [3] 100 % of control | [5] 94 % of control

CC(=O)NC(CO)(CO)CO
inactive: dose: 100.0 mg/kg/injection, schedule: Q01DX001 (ip), vehicle: saline 100 % of control | dose: 200.0 mg/kg/injection, schedule: Q01DX001 (ip), vehicle: saline 95 % of control

O=C1CCCN1.O=C1CCCN1.[Br][Co][Br]
inactive: [9] 108 % of control | dose: 44.0 mg/kg/injection, schedule: Q01DX009 (ip), vehicle: saline 109 % of control | [10] 113 % of control | [11] 105 % of control | [12] 111 % of control

Cc1nc(C(N)=O)c(=O)[nH]c1C
inactive: dose: 6.25 mg/kg/injection, schedule: Q04DX003 (ip), vehicle: saline 104 % of control | dose: 12.5 mg/kg/injection, schedule: Q04DX003 (ip), vehicle: saline 109 % of control | [13] 100 % of control | [11] 88 % of control | dose: 100.0 mg/kg/injection, schedule: Q04DX003 (ip), vehicle: saline sonified 104 % of control | dose: 200.0 mg/kg/injection, schedule: Q04DX003 (ip), vehicle: saline sonified 104 % of control

CC(C)=CCOc1ccc2ccc(=O)oc2c1
inactive: dose: 4.0 mg/kg/injection, schedule: Q01DX009 (ip), vehicle: Klucel (hydroxypropylcellulose) (HPC) 100 % of control | dose: 8.0 mg/kg/injection, schedule: Q01DX009 (ip), vehicle: Klucel (hydroxypropylcellulose) (HPC) 98 % of control | dose: 16.0 mg/kg/injection, schedule: Q01DX009 (ip), vehicle: Klucel (hydroxypropylcellulose) (HPC) 108 % of control | dose: 32.0 mg/kg/injection, schedule: Q01DX009 (ip), vehicle: Klucel (hydroxypropylcellulose) (HPC) 90 % of control

CCCCOCN(COCCCC)c1ncccn1
inactive: [6] 108 % of control | [7] 106 % of control | [2] 104 % of control

CC1(C)CC(C)(OC(=O)c2ccccc2)N=N1 (centres undefined)
inactive: dose: 25.0 mg/kg/injection, schedule: Q01DX005 (ip), vehicle: other 98 % of control | dose: 50.0 mg/kg/injection, schedule: Q01DX005 (ip), vehicle: other 98 % of control | dose: 100.0 mg/kg/injection, schedule: Q01DX005 (ip), vehicle: other 99 % of control | dose: 200.0 mg/kg/injection, schedule: Q01DX005 (ip), vehicle: other 99 % of control | dose: 400.0 mg/kg/injection, schedule: Q01DX005 (ip), vehicle: other 119 % of control

CSc1cccc(NC(=O)Nc2onc(C)c2C)c1
inactive: dose: 12.5 mg/kg/injection, schedule: Q01DX009 (ip), vehicle: Klucel (hydroxypropylcellulose) (HPC) 101 % of control | dose: 25.0 mg/kg/injection, schedule: Q01DX009 (ip), vehicle: Klucel (hydroxypropylcellulose) (HPC) 99 % of control | dose: 50.0 mg/kg/injection, schedule: Q01DX009 (ip), vehicle: Klucel (hydroxypropylcellulose) (HPC) 101 % of control

COc1cc2ccc3ccncc3c2cc1OC
inactive: dose: 12.5 mg/kg/injection, schedule: Q01DX009 (ip), vehicle: saline 95 % of control | [9] 100 % of control | [13] 95 % of control | [10] 90 % of control | [11] 113 % of control | [12] 86 % of control

Cc1cc(=O)[nH]c2cc(Br)ccc12
inactive: [14] 104 % of control | dose: 200.0 mg/kg/injection, schedule: Q01DX001 (ip), vehicle: saline with Tween-80 90 % of control | dose: 400.0 mg/kg/injection, schedule: Q01DX001 (ip), vehicle: saline with Tween-80 90 % of control

CCCC(NC(=O)OCc1ccccc1)C(=O)O (centres undefined)
inactive: [7] 105 % of control | [2] 105 % of control

c1ccc(-c2[nH]c3ccccc3c2-c2ccccc2)cc1
inactive: dose: 100.0 mg/kg/injection, schedule: Q01DX001 (ip), vehicle: Klucel (hydroxypropylcellulose) (HPC) 109 % of control | dose: 200.0 mg/kg/injection, schedule: Q01DX001 (ip), vehicle: Klucel (hydroxypropylcellulose) (HPC) 113 % of control | dose: 400.0 mg/kg/injection, schedule: Q01DX001 (ip), vehicle: Klucel (hydroxypropylcellulose) (HPC) 122 % of control

CCCCC/C=C/C/C=C\CCCCCCCC(=O)NC1CC(O)C(O)NC(=O)C2C(O)C(C)CN2C(=O)C(C(C)O)NC(=O)C(C(O)C(O)c2ccc(O)cc2)NC(=O)C2CC(O)CN2C(=O)C(C(C)O)NC1=O (stereo not drawn) (X4-[ξOrn(4,5-diOH)]T[Hyp][ξhTyr(βξ-OH,γξ-OH)]T[ξPro(3ξ-OH,4ξ-Me)]; lactam 1-C; configuration not given here)
inactive: dose: 0.5 mg/kg/injection, schedule: Q01DX009 (ip), vehicle: lactate 100 % of control | dose: 1.0 mg/kg/injection, schedule: Q01DX009 (ip), vehicle: lactate 102 % of control | dose: 2.0 mg/kg/injection, schedule: Q01DX009 (ip), vehicle: lactate 102 % of control | dose: 4.0 mg/kg/injection, schedule: Q01DX009 (ip), vehicle: lactate 100 % of control

CCCNC(C)(C)C(SS)c1ccc(C(F)(F)F)cc1 (centres undefined)
inactive: dose: 12.5 mg/kg/injection, schedule: Q04DX003 (ip), vehicle: other 100 % of control | dose: 25.0 mg/kg/injection, schedule: Q04DX003 (ip), vehicle: other 110 % of control | dose: 50.0 mg/kg/injection, schedule: Q04DX003 (ip), vehicle: other 105 % of control

O=C(CCC[N+](=O)[O-])c1ccccc1
inactive: dose: 50.0 mg/kg/injection, schedule: Q01DX005 (ip), vehicle: saline with Tween-80 113 % of control | dose: 100.0 mg/kg/injection, schedule: Q01DX005 (ip), vehicle: saline with Tween-80 113 % of control | dose: 200.0 mg/kg/injection, schedule: Q01DX005 (ip), vehicle: saline with Tween-80 99 % of control

Cc1ccc(C)c2c1[nH]c1c(C)c3ccncc3c(C)c12
inactive: dose: 25.0 mg/kg/injection, schedule: Q01DX001 (ip), vehicle: saline with Tween-80 101 % of control | dose: 50.0 mg/kg/injection, schedule: Q01DX001 (ip), vehicle: saline with Tween-80 91 % of control | [14] 96 % of control

O=c1oc2c(c(N(c3ccccc3)c3ccccc3)c1Cl)CSc1ccccc1-2
inactive: dose: 25.0 mg/kg/injection, schedule: Q04DX003 (ip), vehicle: saline with Tween-80 100 % of control | [8] 93 % of control | [1] 90 % of control

NOCc1cccc(Cl)c1
inactive: [8] 91 % of control | [1] 91 % of control

CCCCCC[n+]1cccc(C(N)=O)c1
inactive: [11] 104 % of control | [12] 100 % of control | dose: 200.0 mg/kg/injection, schedule: Q04DX003 (ip), vehicle: saline 95 % of control

Cc1c2ccc3ccccc3c2c[n+]2ccccc12
inactive: dose: 5.0 mg/kg/injection, schedule: Q01DX009 (ip), vehicle: saline with Tween-80 118 % of control | dose: 5.0 mg/kg/injection, schedule: Q04DX003 (ip), vehicle: saline with Tween-80 108 % of control | dose: 10.0 mg/kg/injection, schedule: Q01DX009 (ip), vehicle: saline with Tween-80 86 % of control | dose: 10.0 mg/kg/injection, schedule: Q04DX003 (ip), vehicle: saline with Tween-80 108 % of control | dose: 20.0 mg/kg/injection, schedule: Q04DX003 (ip), vehicle: saline with Tween-80 116 % of control
